For test [1], the target named is T1, Dual specificity protein phosphatase 6 (Rattus norvegicus, UniProt Q64346).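 Further: confirmatory in vitro dose-response testing of MKP-3 inhibition; recombinant His-tagged MKP-3 made in E. coli BL21 with OMFP substrate.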
T1 sequence (Q64346 whole entry): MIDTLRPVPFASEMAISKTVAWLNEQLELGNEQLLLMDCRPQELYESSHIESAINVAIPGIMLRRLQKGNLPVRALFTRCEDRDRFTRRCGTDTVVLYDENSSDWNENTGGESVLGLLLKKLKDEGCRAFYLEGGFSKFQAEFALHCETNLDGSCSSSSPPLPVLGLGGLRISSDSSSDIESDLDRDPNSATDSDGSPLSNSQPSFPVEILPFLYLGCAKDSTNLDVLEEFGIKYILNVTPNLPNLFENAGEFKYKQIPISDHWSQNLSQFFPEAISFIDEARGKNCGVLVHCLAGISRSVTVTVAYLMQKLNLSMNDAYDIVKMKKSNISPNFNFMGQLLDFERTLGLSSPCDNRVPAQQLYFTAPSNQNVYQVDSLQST
It counts as functional.

Test [2] addresses T2, Tyrosine-protein phosphatase non-receptor type 7 (Homo sapiens, UniProt P35236).
T2 sequence (P35236 whole entry): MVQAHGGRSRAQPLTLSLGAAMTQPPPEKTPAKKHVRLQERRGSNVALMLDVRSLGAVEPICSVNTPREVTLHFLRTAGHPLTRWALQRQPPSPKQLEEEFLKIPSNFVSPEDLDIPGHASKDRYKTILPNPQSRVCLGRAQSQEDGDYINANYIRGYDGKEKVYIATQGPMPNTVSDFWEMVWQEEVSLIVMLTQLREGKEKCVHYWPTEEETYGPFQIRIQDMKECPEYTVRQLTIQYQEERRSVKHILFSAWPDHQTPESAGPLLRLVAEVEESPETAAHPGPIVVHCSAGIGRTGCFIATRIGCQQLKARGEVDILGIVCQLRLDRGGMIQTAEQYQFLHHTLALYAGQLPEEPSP
Description: redox-active compounds inhibiting HePTP phosphatase – biochemical, fluorescence, mechanism study (AID 2068). It counts as functional.

Test [3] addresses T3, Dual specificity protein phosphatase 3 (Homo sapiens, UniProt P51452). Description: SAR VHR1 absorbance Assay for In Vitro dose response studies. [Related pubchem assays (depositor defined):AID1654, AID1661, AID1878, AID1992, AID2004].
Test [4] has as its target T3, Dual specificity protein phosphatase 3. The test can be described thus: SAR VHR1 Fluorescent Assay for In Vitro dose response studies. [Related pubchem assays (depositor defined):AID1654, AID1661, AID1878, AID1992, AID2004, AID2070, AID2085]. It counts as functional.
Test [5] concerns the target T4, Short transient receptor potential channel 4 (Mus musculus, UniProt Q9QUQ5).
T4 sequence (Q9QUQ5 whole entry): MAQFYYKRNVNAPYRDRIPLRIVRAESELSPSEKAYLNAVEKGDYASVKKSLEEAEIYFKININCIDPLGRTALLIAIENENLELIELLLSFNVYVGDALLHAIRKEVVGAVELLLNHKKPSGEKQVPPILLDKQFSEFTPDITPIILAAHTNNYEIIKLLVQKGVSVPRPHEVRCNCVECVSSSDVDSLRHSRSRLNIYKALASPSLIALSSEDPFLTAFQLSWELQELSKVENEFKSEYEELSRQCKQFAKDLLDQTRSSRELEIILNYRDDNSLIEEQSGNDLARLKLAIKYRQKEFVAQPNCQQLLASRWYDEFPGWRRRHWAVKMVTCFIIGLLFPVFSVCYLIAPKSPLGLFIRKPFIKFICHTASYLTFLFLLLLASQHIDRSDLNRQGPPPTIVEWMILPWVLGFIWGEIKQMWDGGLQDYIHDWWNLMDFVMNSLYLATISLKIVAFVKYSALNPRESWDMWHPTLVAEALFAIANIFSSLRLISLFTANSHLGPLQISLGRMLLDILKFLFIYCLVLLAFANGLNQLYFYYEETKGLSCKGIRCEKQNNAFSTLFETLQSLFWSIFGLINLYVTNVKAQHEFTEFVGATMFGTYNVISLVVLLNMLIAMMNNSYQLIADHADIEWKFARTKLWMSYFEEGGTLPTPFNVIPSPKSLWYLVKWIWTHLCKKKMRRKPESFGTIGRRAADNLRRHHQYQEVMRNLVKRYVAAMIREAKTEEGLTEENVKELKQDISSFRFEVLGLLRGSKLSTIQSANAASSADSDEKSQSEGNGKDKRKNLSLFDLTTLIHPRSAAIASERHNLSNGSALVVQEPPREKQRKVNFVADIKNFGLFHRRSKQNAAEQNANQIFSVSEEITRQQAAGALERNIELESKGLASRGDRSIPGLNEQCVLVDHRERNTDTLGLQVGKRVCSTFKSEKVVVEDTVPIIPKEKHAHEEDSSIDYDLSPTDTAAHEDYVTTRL
The test can be described thus: potentiation of DAMGO-evoked TRPC4 calcium signal – cell-based, HEK293 TRPC4/mu-opioid, Fluo-4 calcium, EC20 DAMGO, dose response (AID 434941).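 Further: HEK293 cells coexpressing TRPC4 and mu opioid receptor stimulated by EC20 DAMGO.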 It counts as functional.

The target in the next test is Hexokinase (Trypanosoma brucei, UniProt Q38C41). The test can be described thus: Confirmation assay for inhibitors of Trypanosoma brucei hexokinase 1-Analogue-first series. [Related pubchem assays (depositor defined):AID1430, AID1632, AID2516, AID2560, AID2579, AID2600, AID449725, AID492951]. Format: functional.
Chain of Hexokinase (Q38C41 whole entry): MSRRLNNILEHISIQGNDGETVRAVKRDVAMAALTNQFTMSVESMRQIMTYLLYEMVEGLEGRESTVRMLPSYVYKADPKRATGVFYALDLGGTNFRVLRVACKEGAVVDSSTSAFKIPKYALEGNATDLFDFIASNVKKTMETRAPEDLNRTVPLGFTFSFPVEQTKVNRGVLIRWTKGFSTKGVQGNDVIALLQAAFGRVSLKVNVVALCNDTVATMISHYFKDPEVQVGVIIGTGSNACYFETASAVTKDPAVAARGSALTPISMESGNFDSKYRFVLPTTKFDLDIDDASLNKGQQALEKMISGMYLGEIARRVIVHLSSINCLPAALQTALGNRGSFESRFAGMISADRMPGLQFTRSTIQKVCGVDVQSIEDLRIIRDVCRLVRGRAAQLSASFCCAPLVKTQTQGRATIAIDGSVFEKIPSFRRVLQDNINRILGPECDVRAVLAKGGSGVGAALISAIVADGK
Test [6] has as its target T5, Kappa-type opioid receptor (Homo sapiens, UniProt P41145). The test can be described thus: SAR analysis of small molecule antagonists of the kappa opioid receptor via a luminescent beta-arrestin assay - Set 3. [Related pubchem assays (depositor defined):AID1777, AID1778, AID1785, AID1786, AID1966, AID2133, AID2136, AID2285, AID2495]. It counts as functional.
The target of a further test is Mu-type opioid receptor (Homo sapiens, UniProt P35372). The test can be described thus: SAR Analysis of Antagonists of the MOR Receptor using an Image-Based Assay - Set 3. [Related pubchem assays (depositor defined):AID1777, AID1785, AID1786, AID1966, AID2133, AID2136, AID2284, AID2285, AID2420]. It counts as functional.
Chain of Mu-type opioid receptor (P35372 whole entry): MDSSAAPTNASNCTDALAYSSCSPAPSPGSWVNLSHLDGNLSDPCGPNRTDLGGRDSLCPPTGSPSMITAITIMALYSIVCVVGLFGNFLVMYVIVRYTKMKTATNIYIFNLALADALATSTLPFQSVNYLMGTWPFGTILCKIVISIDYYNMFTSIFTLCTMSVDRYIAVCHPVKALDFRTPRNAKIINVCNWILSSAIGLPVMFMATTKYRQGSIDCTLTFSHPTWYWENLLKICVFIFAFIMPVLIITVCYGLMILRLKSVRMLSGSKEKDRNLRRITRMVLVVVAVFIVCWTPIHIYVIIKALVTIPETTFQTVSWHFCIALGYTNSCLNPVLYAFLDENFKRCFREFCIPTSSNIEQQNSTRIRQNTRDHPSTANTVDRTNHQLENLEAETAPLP
Test [7] has as its target T5, Kappa-type opioid receptor. The test can be described thus: SAR analysis of Antagonists of the Kappa Opioid Receptor (KOR) using an Image-Based Assay - Set 3. [Related pubchem assays (depositor defined):AID1777, AID1785]. Format: functional.
Test [8] has as its target Delta-type opioid receptor (Homo sapiens, UniProt P41143). Description: SAR Analysis of Antagonists of the DOR Receptor using an Image-Based Assay - Set 3. [Related pubchem assays (depositor defined):AID1777, AID1785]. It counts as functional.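 Further: U2OS cells expressing DOR1 and beta-arrestin GFP stimulated with 100 nM SNC80; imaging of GFP-tagged beta-arrestin moving into spots after receptor activation.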
Test [9] addresses T6, Replicative DNA helicase DnaB (Mycobacterium tuberculosis, UniProt P9WMR3).
T6 sequence (P9WMR3 whole entry): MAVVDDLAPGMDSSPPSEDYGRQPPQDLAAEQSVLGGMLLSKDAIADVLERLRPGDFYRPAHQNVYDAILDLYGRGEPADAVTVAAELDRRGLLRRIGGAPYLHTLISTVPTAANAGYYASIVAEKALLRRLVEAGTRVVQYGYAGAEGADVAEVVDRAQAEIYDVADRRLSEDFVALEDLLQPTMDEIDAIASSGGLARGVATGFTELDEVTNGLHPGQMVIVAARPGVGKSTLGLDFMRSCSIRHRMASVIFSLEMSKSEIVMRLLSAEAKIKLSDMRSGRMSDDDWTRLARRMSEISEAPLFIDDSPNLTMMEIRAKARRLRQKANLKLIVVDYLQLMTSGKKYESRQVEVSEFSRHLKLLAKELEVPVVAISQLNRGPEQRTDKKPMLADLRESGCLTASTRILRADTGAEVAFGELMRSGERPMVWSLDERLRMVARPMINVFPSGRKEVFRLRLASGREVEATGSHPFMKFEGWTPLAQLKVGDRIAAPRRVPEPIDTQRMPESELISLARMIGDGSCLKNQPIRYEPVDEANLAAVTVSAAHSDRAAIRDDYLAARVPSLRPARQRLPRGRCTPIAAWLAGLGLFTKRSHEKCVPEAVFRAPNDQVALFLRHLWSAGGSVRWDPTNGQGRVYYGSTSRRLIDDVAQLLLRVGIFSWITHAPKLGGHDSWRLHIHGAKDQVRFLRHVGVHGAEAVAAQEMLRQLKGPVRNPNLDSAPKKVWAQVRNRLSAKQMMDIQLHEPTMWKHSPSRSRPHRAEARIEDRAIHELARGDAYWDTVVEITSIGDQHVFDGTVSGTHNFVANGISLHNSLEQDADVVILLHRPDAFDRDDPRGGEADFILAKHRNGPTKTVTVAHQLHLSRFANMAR
The test can be described thus: DnaB intein splicing inhibitors, dose response, biochemical, cell-free fluorescence (AID 449749). It counts as functional.

The target in a further test is T7, Protein RecA (Mycobacterium tuberculosis, UniProt P9WHJ3).
T7 sequence (P9WHJ3 whole entry): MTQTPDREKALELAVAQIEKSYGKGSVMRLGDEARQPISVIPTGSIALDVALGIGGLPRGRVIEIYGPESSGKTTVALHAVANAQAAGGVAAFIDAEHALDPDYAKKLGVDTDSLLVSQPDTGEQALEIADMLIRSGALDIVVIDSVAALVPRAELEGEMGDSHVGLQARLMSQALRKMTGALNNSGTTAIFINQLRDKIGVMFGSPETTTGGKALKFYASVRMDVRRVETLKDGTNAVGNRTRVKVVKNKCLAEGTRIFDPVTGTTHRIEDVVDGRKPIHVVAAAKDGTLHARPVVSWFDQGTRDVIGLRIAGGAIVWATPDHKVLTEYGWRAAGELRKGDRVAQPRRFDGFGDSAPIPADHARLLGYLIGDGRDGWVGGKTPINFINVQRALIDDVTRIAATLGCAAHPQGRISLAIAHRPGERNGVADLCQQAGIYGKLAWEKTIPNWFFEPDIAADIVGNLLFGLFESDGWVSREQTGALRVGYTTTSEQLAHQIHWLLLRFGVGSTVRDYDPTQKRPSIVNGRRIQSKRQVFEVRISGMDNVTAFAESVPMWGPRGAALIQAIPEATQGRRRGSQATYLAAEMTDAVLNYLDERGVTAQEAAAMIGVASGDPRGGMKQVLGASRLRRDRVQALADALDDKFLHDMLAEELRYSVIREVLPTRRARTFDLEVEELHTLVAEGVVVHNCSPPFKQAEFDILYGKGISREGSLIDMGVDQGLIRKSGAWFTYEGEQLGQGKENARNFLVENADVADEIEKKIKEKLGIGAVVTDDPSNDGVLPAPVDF
The test can be described thus: Fluorescence Cell-Free Homogeneous Dose Retest to Identify Inhibitors of RecA-Intein Splicing Activity. [Related pubchem assays (depositor defined):AID2097, AID2223, AID489010, AID492950]. Format: functional.

Test [10] has as its target G-protein coupled receptor 55 (Homo sapiens, UniProt Q9Y2T6). Description: selective activators of receptor GPR55 – imaging, U2OS cells, beta-arrestin-GFP redistribution, primary screen (AID 1961). Format: functional.

Activity calls are given as the source filed them.

T3 sequence (P51452 whole entry): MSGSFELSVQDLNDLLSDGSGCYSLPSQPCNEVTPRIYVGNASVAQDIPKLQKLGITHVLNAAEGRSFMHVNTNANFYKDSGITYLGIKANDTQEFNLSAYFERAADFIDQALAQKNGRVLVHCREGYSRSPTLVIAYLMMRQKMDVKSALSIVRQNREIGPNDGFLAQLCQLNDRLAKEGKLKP
T5 sequence (P41145 whole entry): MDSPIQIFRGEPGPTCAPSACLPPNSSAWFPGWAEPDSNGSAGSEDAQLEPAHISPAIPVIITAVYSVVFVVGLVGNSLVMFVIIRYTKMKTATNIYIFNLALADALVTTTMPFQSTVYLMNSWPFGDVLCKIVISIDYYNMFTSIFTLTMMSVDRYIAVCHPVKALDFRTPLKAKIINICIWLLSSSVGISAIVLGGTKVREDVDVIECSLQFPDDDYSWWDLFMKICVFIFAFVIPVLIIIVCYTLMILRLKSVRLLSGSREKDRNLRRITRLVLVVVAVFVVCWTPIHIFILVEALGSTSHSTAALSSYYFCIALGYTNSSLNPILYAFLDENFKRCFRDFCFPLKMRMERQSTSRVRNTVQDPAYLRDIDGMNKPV
Chain of Delta-type opioid receptor (P41143 whole entry): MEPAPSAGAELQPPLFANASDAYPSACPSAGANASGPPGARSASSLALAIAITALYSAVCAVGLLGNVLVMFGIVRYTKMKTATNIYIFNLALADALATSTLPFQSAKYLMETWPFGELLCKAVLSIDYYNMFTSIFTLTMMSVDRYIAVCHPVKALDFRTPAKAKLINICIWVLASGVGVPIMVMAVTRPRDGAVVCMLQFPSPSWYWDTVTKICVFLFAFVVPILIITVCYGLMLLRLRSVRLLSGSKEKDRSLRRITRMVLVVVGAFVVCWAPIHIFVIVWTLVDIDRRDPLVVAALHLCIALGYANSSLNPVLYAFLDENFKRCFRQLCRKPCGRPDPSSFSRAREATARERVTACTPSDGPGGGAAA
Chain of G-protein coupled receptor 55 (Q9Y2T6 whole entry): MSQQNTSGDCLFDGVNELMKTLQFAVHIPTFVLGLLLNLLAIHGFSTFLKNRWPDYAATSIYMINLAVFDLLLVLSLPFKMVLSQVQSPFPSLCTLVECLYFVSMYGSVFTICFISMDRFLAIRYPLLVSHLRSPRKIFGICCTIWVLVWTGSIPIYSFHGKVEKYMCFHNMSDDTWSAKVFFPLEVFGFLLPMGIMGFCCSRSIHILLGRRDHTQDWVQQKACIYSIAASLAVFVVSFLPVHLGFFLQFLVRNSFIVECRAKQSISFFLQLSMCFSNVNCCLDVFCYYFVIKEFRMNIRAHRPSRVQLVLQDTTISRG

With `O=C(NCc1ccccc1)c1cn(CCOc2ccccc2)c2ccccc12`, the IC50 – broadly, the concentration that inhibits the measured activity by half – in test [1] was > 100 µM (inactive); in test [2], 44.1 µM (active); in test [3], > 100 µM (inactive); in test [4], > 100 µM (inactive).

`O=C(c1cccc([N+](=O)[O-])c1)N1CCCC(C(=O)N2CCCCCC2)C1` (stereo not drawn): in test [5], the EC50 (in general, the concentration giving half of the maximal effect) was 0.33 µM (active).

With `O=C(Nc1cc(Cl)ccc1C(=O)O)c1ccc2c(c1)OCO2`, the IC50 at Hexokinase was 9.43 µM (active).

On to `COc1ccc(S(=O)(=O)NCc2ccc(C(=O)NCCN(Cc3ccccc3)Cc3ccccc3)cc2)cc1`, for which the IC50 in test [6] was > 20 µM (inactive); at Mu-type opioid receptor it was > 32 µM (inactive); in [7], 13.1 µM (inactive); in test [8], > 32 µM (inactive).

Regarding `O=C(c1ccncc1)N(c1ccc2oc3c(c2c1)CCCC3)S(=O)(=O)c1ccc(F)cc1`, in test [9], the AC50 (usually the midpoint of the concentration-response curve, whichever way the signal moves) is 2.09 µM (active). In addition, the EC50 at Protein RecA is 6.22 µM (active); in [10], > 32 µM (inactive).

(Values after ChEMBL document CHEMBL1201862, “PubChem BioAssay data set” (2004).)
